Reference: EP1095657A2, “Compositions for the regulation of cytokine activity” (priority 1992, dated 1994)

What was measured:
ICAM-1 = experiment: TNF-α-induced expression of adhesion molecules by endothelial cells (ELISA); details: 1 h pretreatment of EC, TNFα alone 2.2±0.2
[1] = system: secretion of active TNF-α by activated human CD4+ T cells; experiment: Bioassay of TNF-α activity using human CD4+ T cells derived from PBLs (human PBL bioassay); details: conc range of 1 µg/ml - 0.01 pg/ml; inconsistent = not the same result in all three bioassays
IDDM of NOD mice = experiment: Insulin dependent diabetes mellitus (IDDM) of NOD mice; type: in vivo
[2] = system: respiratory distress after aerosolized OVA challenge; experiment: Experimental allergic bronchial asthma in rats; type: in vivo, Brown Norway rats; details: 30 ng s.c. on day 30, challenge on day 35; saline group Grade 3 or 4
Method: To assess the ability of substance H-9392 to prevent a bronchial asthma attack, 6 male Brown Norway rats were primed to ovalbumin (OVA) by subcutaneous injection of 1 mg of OVA in suspension with 200 mg AlOH/ml 0.9% saline solution accompanied by intraperitoneal injection of 1 ml solution containing 6x10^6 heat killed Bordetella pertussis bacteria (Pasteur Merieux, S.V.), on day zero. Subsequent challenges consisted of a 5 minute period of inhalation of OVA (1 mg/ml solution) aerosolized in a Devilbiss Nebulizer operated at an airflow of 6 L/min. Respiratory Distress (RD) responses were scored as Grade 0, no signs of distress; Grade 1, tachypnea; Grade 2, moderate labored breathing; Grade 3 severe labored breathing with mouth open; Grade 4, loss of consciousness and muscular tone. Sixteen days following primary immunization all animals were exposed to an initial aerosolized challenge to establish the positive control. The animals were coded so that the observer was ignorant of the subject animal's history.
On day thirty, the animals were divided into 2 groups and given either saline (control Group A) or 30 ng of substance H-9392, s.c., (Group B) and challenged on day 35 as above.

[3] = system: adjuvant arthritis in Lewis rats; experiment: Adjuvant arthritis (AA) in rats; type: in vivo
[4] = system: C57BL/6 skin grafts on BALB/c mice; experiment: Skin allograft rejection in mice; type: in vivo
Method: The effect of H-9392 was also tested in skin graft rejection experiments in mice. In particular, skin grafts from C57BL/6 donor mice (H-2^b) were applied to recipient BALB/c mice (H-2^d) according to the method of Baharav, E. et al. J. Immunol. Methods (1986) 90:143-144. The number of days to rejection was measured by the sloughing of the graft. The number of days to rejection was determined for a control group (injected with saline only, 0.1 ml), and test groups that received 3 ng or 300 ng of H-9392 by subcutaneous injection one day before grafting and weekly thereafter. The results, which are graphically represented in FIGS. 40 and 40A, reveal that the 3 ng/mouse dose delayed the level of skin graft rejection at 50% by 5 days!

[5] = system: mortality after gamma irradiation; experiment: Radioprotective effect in gamma-irradiated mice; type: in vivo, BALB/c mice
Method: Groups of female BALB/c mice, 8 weeks old, 5-10 mice per group, were injected subcutaneously with either saline (0.1 ml, control), H-9392 (30 ng/mouse), or glucosamine (10,000 ng/mouse) 1 day before irradiation, and weekly thereafter until termination of the experiment on day 30. All the mice were irradiated to a dose of 700 rads using a ^60Co gamma radiation source.
In a separate experiment, groups of BALB/c mice (5 mice to a group) were likewise exposed to 750 rads of gamma-rays, except that these groups of mice were treated with test substances (saline at 0.1 ml per mouse; H-9392 at 0.3, 3, 30 and 300 ng/mouse; and glucosamine at 1, 10 and 100 µg/mouse) on the day before irradiation, on the sixth day after irradiation, and once again on the thirteenth day after irradiation only. All treatment ceased after the third and last administration.

ELAM-1 = experiment: TNF-α-induced expression of adhesion molecules by endothelial cells (ELISA); details: for Recombinant human TNFα-induced adhesion molecules (O.D 492): 1 h pretreatment of EC, TNFα alone 1.2±0.1

## O=C(O)C1=C[C@H](O)[C@@H](OS(=O)(=O)O)[C@H](O[C@H]2[C@H](O)[C@@H](NS(=O)(=O)O)C(O)O[C@@H]2CO)O1 (stereo partly drawn) [H-9392, 2-O-sulfate-4-deoxy-4-en-iduronic acid-(α-1,4)-2-deoxy-2-N-sulfateglucosamine]
ICAM-1; 50 pg/ml, no TNFα 0.18±0.01
  Recombinant human TNFα-induced adhesion molecules (O.D 492): 1.0±0.04 O.D 492
ICAM-1; 100 pg/ml
  Recombinant human TNFα-induced adhesion molecules (O.D 492): 1.4±0.03 O.D 492
[1]
  Bioassay of TNF Activity, in words: Inconsistent
IDDM of NOD mice; at 4.5 months, H-9392 30 ng/mouse, glucosamine 10,000 ng/mouse s.c., all control mice diabetic
  mice that had become diabetic: less than 50%
IDDM of NOD mice; by age 5 months, H-9392 30 ng, glucosamine 10,000 ng, all control mice had died
  mice that had died, in words: none
[2]
  respiratory distress after challenge, in words: mere tachypnea
[3]; 120 ng/rat or 0.6 ng/gm rat s.c. weekly from 1 day before induction, 24 days after induction
  suppression of the inflammation of AA: up to 90%
[3]; weekly or daily, beginning at day 0 or at day 12
  effect on AA, in words: positive suppression of the severity of AA in all cases
[3]; weekly s.c. from day 12 to day 26, 120 ng disaccharide or 100 µg dexamethasone phosphate per rat
  effect on AA at 30 days post-induction, in words: almost complete suppression
[4]; 3 ng/mouse s.c. one day before grafting and weekly thereafter
  delay of the level of skin graft rejection at 50%: 5 days
[4]; 300 ng/mouse s.c. one day before grafting and weekly thereafter
  difference at 50% rejection relative to control, in words: failed to produce a significant difference
[5]; 700 rads, by day 30, s.c. 1 day before irradiation and weekly, H-9392 30 ng/mouse, glucosamine 10,000 ng/mouse, saline 100%
  mortality rate: 40%
[5]; 750 rads, 30 ng/mouse, three administrations, 5 mice to a group
  mice that had died by the thirtieth day after irradiation: only one mouse
[5]; 750 rads, three administrations, 300 ng H-9392, 1 µg glucosamine
  activity in suppressing mortality after irradiation, in words: moderate activity in suppressing mortality
ELAM-1; 50 pg/ml, no TNFα 0.12±0.01
  Recombinant human TNFα-induced adhesion molecules (O.D 492): 0.6±0.1 O.D 492
ELAM-1; 100 pg/ml
  Recombinant human TNFα-induced adhesion molecules (O.D 492): 0.9±0.07 O.D 492
ELAM-1; ELAM-1 and ICAM-1 not told apart in the sentence
  inhibition of the up regulation of EC expression of adhesion molecules induced by TNF-α: up to 50%
